# Tests used:
# [1] = system: barnyardgrass; experiment: Test B pre-/postemergence herbicide test; type: in vivo, Echinochloa crus-galli; settings: for Plant response rating (0 to 100 scale), Barnyardgrass: 0 is no effect
# Method in brief: (§1)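 Test chemicals in a non-phytotoxic solvent mixture with surfactant were applied preemergence to seeded species and postemergence to plants 2-18 cm tall (1- to 4-leaf stage); rice and barnyardgrass were also tested in a flooded paddy at the 2-leaf stage. Visual rating versus controls after 13-15 days in greenhouse, scale 0 (no effect) to 100 (complete control).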
# [2] = system: Surinam grass; experiment: Test B pre-/postemergence herbicide test; type: in vivo, Urochloa decumbens; settings: for Plant response rating (0 to 100 scale), Surinam Grass: 0 is no effect
# Method in brief: (§2)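 Flooded paddy rice and barnyardgrass were treated at the 2-leaf stage; upland plantings received compound either on sown seed or on 1- to 4-leaf seedlings. All were kept 13–15 days in a greenhouse and scored visually, 0–100, relative to untreated plants.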
# [3] = system: cocklebur; experiment: Test B pre-/postemergence herbicide test; type: in vivo, Xanthium strumarium; settings: for Plant response rating (0 to 100 scale), Cocklebur: 0 is no effect
# Method in brief: as §1
# [4] = system: corn; experiment: Test B pre-/postemergence herbicide test; type: in vivo, Zea mays; settings: for Plant response rating (0 to 100 scale), Corn: 0 is no effect
# Method in brief: as §2
# [5] = system: large crabgrass; experiment: Test B pre-/postemergence herbicide test; type: in vivo, Digitaria sanguinalis; settings: for Plant response rating (0 to 100 scale), Crabgrass, Large: 0 is no effect
# Method in brief: as §2
# [6] = system: giant foxtail; experiment: Test B pre-/postemergence herbicide test; type: in vivo, Setaria faberi; settings: for Plant response rating (0 to 100 scale), Foxtail, Giant: 0 is no effect
# Method in brief: as §2
# [7] = system: lambsquarters; experiment: Test B pre-/postemergence herbicide test; type: in vivo, Chenopodium album; settings: for Plant response rating (0 to 100 scale), Lambsquarters: 0 is no effect
# Method in brief: as §2
# [8] = system: morningglory; experiment: Test B pre-/postemergence herbicide test; type: in vivo, Ipomoea coccinea; settings: for Plant response rating (0 to 100 scale), Morningglory: 0 is no effect
# Method in brief: as §1
# [9] = system: pigweed; experiment: Test B pre-/postemergence herbicide test; type: in vivo, Amaranthus retroflexus; settings: for Plant response rating (0 to 100 scale), Pigweed: 0 is no effect
# Method in brief: as §2
# [10] = system: velvetleaf; experiment: Test B pre-/postemergence herbicide test; type: in vivo, Abutilon theophrasti; settings: for Plant response rating (0 to 100 scale), Velvetleaf: 0 is no effect, preemergence
# Method in brief: as §2
# [11] = system: blackgrass; experiment: Test B postemergence herbicide test; type: in vivo, Alopecurus myosuroides
# Method in brief: (§3)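 Paddy species grown to the 2-leaf stage under flooding; blackgrass sprayed postemergence at 2–18 cm (1- to 4-leaf stage). Plants kept in a greenhouse for 13 to 15 days, then visually rated against controls on 0 (no effect) to 100 (complete control).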
# [12] = system: wheat; experiment: Test B postemergence herbicide test; type: in vivo, Triticum aestivum; set-up: key to Wheat plant response rating: 0 = no effect, 100 = complete control
# Method in brief: (§4)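 Postemergence plants were sprayed with formulated test chemicals at 2 to 18 cm height (1- to 4-leaf stage); paddy species were grown to the 2-leaf stage. After 13 to 15 days in a greenhouse, injury was rated visually against untreated controls on a 0–100 scale (0 = no effect, 100 = complete control).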
# [13] = system: wild oat; experiment: Test B postemergence herbicide test; type: in vivo, Avena fatua
# Method in brief: as §4
# [14] = system: rice; experiment: Test B flooded paddy test; type: in vivo, Oryza sativa; settings: 1000 g ai/ha, scale 0 to 100 (0 no effect, 100 complete control)
# Method in brief: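 After treating 2-leaf paddy plants or 2–18 cm postemergence plants (1 to 4 leaves) with formulated chemical, researchers kept them in a greenhouse for 13–15 days. Effects were judged visually versus controls: 0 indicates none, 100 total control.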
# [15] = system: small flower umbrella sedge; experiment: Test B flooded paddy test; type: in vivo, Cyperus difformis; settings: 1000 g ai/ha, scale 0 to 100 (0 no effect, 100 complete control)
# Method in brief: as §3
# [16] = system: ducksalad; experiment: Test B flooded paddy test; type: in vivo, Heteranthera limosa; settings: 1000 g ai/ha, scale 0 to 100 (0 no effect, 100 complete control)
# Method in brief: as §3
# [17] = system: barnyardgrass; experiment: Test B flooded paddy test; type: in vivo, Echinochloa crus-galli; settings: 1000 g ai/ha, scale 0 to 100 (0 no effect, 100 complete control)
# Method in brief: as §3
# [18] = 125 g ai/ha, 100 is complete control, preemergence
# [19] = 125 g ai/ha, visual rating, scale 0 (no effect) to 100 (complete control), postemergence
# [20] = postemergence, 500 g ai/ha, scale 0 to 100, 0 is no effect, 100 is complete control
# [21] = 125 g ai/ha, 100 is complete control
# [22] = 500 g ai/ha, visual rating, 0 = no effect, 100 = complete control, preemergence
# [23] = Postemergence, 250 g ai/ha, scale 0 (no effect) to 100 (complete control)
# [24] = postemergence, 62 g ai/ha, scale 0 to 100
smiles,measurement,setting,value
CCNC(=O)c1ccc(F)c(NC(=O)c2nn(C(C)(C)C)nc2CC)c1 [Compound 362],"Plant response rating (0 to 100 scale), Barnyardgrass",[1]; [18],10
same,Barnyardgrass plant response rating,[1]; [19],0
same,Barnyardgrass plant response rating,[1]; [20],0
same,"Plant response rating (0 to 100 scale), Surinam Grass",[2]; [18],10
same,Surinam Grass plant response rating,[2]; [19],10
same,"Plant response rating (0 to 100 scale), Cocklebur",[3]; [18],0
same,Cocklebur plant response rating,[3]; [19],10
same,Cocklebur plant response rating,[3]; [20],30
same,"Plant response rating (0 to 100 scale), Corn",[4]; [18],0
same,Corn plant response rating,[4]; [19],0
same,Corn plant response rating,[4]; [20],0
same,"Plant response rating (0 to 100 scale), Crabgrass, Large",[5]; [18],20
same,"Crabgrass, Large plant response rating",[5]; [19],0
same,"Crabgrass, Large plant response rating",[5]; [20],0
same,"Plant response rating (0 to 100 scale), Foxtail, Giant",[6]; [18],10
same,"Foxtail, Giant plant response rating",[6]; [19],10
same,"Foxtail, Giant plant response rating",[6]; [20],10
same,"Plant response rating (0 to 100 scale), Lambsquarters",[7]; [18],0
same,Lambsquarters plant response rating,[7]; [19],10
same,"Plant response rating (0 to 100 scale), Morningglory",[8]; [18],0
same,Morningglory plant response rating,[8]; [19],10
same,"Plant response rating (0 to 100 scale), Pigweed",[9]; [18],0
same,Pigweed plant response rating,[9]; [19],20
same,"Plant response rating (0 to 100 scale), Velvetleaf",[10]; [21],0
same,Velvetleaf plant response rating,[10]; [19],0
same,Blackgrass plant response rating,[11]; [19],10
same,Blackgrass plant response rating,[11]; [20],20
same,Wheat plant response rating,[12]; [19],0
same,Wheat plant response rating,"[12]; 500 g ai/ha, scale 0 to 100, 0 no effect, 100 complete control, preemergence",30
same,"Oat, Wild plant response rating",[13]; [19],20
same,Rice plant response rating,[14],60
same,"Sedge, Umbrella plant response rating",[15],90
same,Ducksalad plant response rating,[16],90
same,Barnyardgrass plant response rating,[17],50
CCc1nn(C(C)(C)C)nc1C(=O)Nc1cc(C(=O)N(C)C)ccc1F [Compound 361],"Plant response rating (0 to 100 scale), Barnyardgrass",[1]; [18],80
same,Barnyardgrass plant response rating,[1]; [19],0
same,"Plant response rating, Barnyardgrass",[1]; [22],100
same,Barnyardgrass plant response rating,[1]; [20],10
same,"Plant response rating (0 to 100 scale), Surinam Grass",[2]; [18],50
same,Surinam Grass plant response rating,[2]; [19],10
same,"Plant response rating, Surinam Grass",[2]; [22],90
same,Surinam Grass plant response rating,[2]; [20],10
same,"Plant response rating (0 to 100 scale), Cocklebur",[3]; [18],0
same,Cocklebur plant response rating,[3]; [19],10
same,"Plant response rating, Cocklebur",[3]; [22],50
same,Cocklebur plant response rating,[3]; [20],20
same,"Plant response rating (0 to 100 scale), Corn",[4]; [18],30
same,Corn plant response rating,[4]; [19],0
same,"Plant response rating, Corn",[4]; [22],70
same,Corn plant response rating,[4]; [20],0
same,"Plant response rating (0 to 100 scale), Crabgrass, Large",[5]; [18],80
same,"Crabgrass, Large plant response rating",[5]; [19],10
same,"Plant response rating, Crabgrass, Large",[5]; [22],100
same,"Crabgrass, Large plant response rating",[5]; [20],10
same,"Plant response rating (0 to 100 scale), Foxtail, Giant",[6]; [18],50
same,"Foxtail, Giant plant response rating",[6]; [19],20
same,"Plant response rating, Foxtail, Giant",[6]; [22],100
same,"Foxtail, Giant plant response rating",[6]; [20],30
same,"Plant response rating (0 to 100 scale), Lambsquarters",[7]; [18],80
same,Lambsquarters plant response rating,[7]; [19],70
same,"Plant response rating, Lambsquarters",[7]; [22],100
same,Lambsquarters plant response rating,[7]; [20],70
same,"Plant response rating (0 to 100 scale), Morningglory",[8]; [18],10
same,Morningglory plant response rating,[8]; [19],10
same,"Plant response rating, Morningglory",[8]; [22],60
same,Morningglory plant response rating,[8]; [20],80
same,"Plant response rating (0 to 100 scale), Pigweed",[9]; [18],80
same,Pigweed plant response rating,[9]; [19],20
same,"Plant response rating, Pigweed",[9]; [22],100
same,Pigweed plant response rating,[9]; [20],40
same,"Plant response rating (0 to 100 scale), Velvetleaf",[10]; [21],20
same,Velvetleaf plant response rating,[10]; [19],10
same,Velvetleaf plant response rating,[10]; [20],30
same,Blackgrass plant response rating,[11]; [19],10
same,Blackgrass plant response rating,[11]; [20],40
same,Wheat plant response rating,[12]; [19],0
same,Wheat plant response rating,[12]; [20],0
same,"Oat, Wild plant response rating",[13]; [19],0
same,"Oat, Wild plant response rating",[13]; [20],20
same,Rice plant response rating,[14],90
same,"Sedge, Umbrella plant response rating",[15],90
same,Ducksalad plant response rating,[16],90
same,Barnyardgrass plant response rating,[17],80
CCN(CC)C(=O)c1cccc(NC(=O)c2cn(C(C)(C)C)nc2C(F)(F)F)c1 [Compound 191],Barnyardgrass plant response rating,[1]; [23],10
same,Barnyardgrass plant response rating,[1]; [24],0
same,Surinam Grass plant response rating,[2]; [23],10
same,Surinam Grass plant response rating,[2]; [24],10
same,Cocklebur plant response rating,[3]; [23],10
same,Cocklebur plant response rating,[3]; [24],0
same,Corn plant response rating,[4]; [23],10
same,Corn plant response rating,[4]; [24],10
same,"Crabgrass, Large plant response rating",[5]; [23],20
same,"Crabgrass, Large plant response rating",[5]; [24],20
same,"Foxtail, Giant plant response rating",[6]; [23],20
same,"Foxtail, Giant plant response rating",[6]; [24],10
same,Lambsquarters plant response rating,[7]; [23],80
same,Lambsquarters plant response rating,[7]; [24],60
same,Morningglory plant response rating,[8]; [23],90
same,Morningglory plant response rating,[8]; [24],40
same,Pigweed plant response rating,[9]; [23],70
same,Pigweed plant response rating,[9]; [24],30
same,Velvetleaf plant response rating,[10]; [23],20
same,Velvetleaf plant response rating,[10]; [24],10
same,Blackgrass plant response rating,[11]; [23],10
same,Blackgrass plant response rating,[11]; [24],0
same,Wheat plant response rating,"[12]; 250 g ai/ha, scale 0 to 100, 0 no effect, 100 complete control, preemergence",0
same,Wheat plant response rating,[12]; [23],0
same,Wheat plant response rating,[12]; [24],0
same,"Oat, Wild plant response rating",[13]; [23],20
same,"Oat, Wild plant response rating",[13]; [24],10
same,Rice plant response rating,"[14]; visual rating, 13 to 15 days",0
same,"Sedge, Umbrella plant response rating","[15]; visual rating, 13 to 15 days",90
same,Ducksalad plant response rating,"[16]; visual rating, 13 to 15 days",20
same,Barnyardgrass plant response rating,"[17]; visual rating, 13 to 15 days",20

# Reference: patent US20060069132A1, “Azolecarboxamide herbicides” (priority 2004, published 2006)
